Measurements from US20080241115A1, “Use Of Mesenchymal Stem Cells Genetically Modified To Express A Suicide Gene For Treating A Cancer” (Ajou University Industry-Academic Cooperation Foundation, priority 2005, published 2008).

Key:
MSC/CD cells = assay: Suicide effect of CD gene in MSC/CD cells, MTT assay and light microscopy; format: cell-based, human
Experimental: CD-expressing retrovirus was used to deliver the CD gene into MSCs. MSCs obtained in Step 1 of Example 1 were grown in growth medium (DMEM containing 10% FBS, 100 units/ml penicillin and 100 μg/ml streptomycin) at 37° C. and 5% CO2 until 70% confluence. CD-expressing retrovirus prepared in Example 2 was added to the culture with 1:1 dilution in the growth medium in the presence of 8 μg/ml polybrene (Sigma) for 8 hours and in the fresh growth medium for 16 hours. After the retroviral transduction was repeated 2 more times, the cells were split into 1:3 in growth medium containing 4 μg/ml puromycin (Sigma) for 14 days. The survived cells were pooled, and used in the subsequent experiments.
(§1) MSC/CD or MSC cells were plated in growth medium at a density of 5,000 cells/well in a 6-well plate one day before exposure to 5-FC. The medium was replaced every 2 days with fresh growth medium containing 0-10 mM 5-FC for 2 weeks. […] The viability was estimated by measuring mitochondria NADPH activity using MTT assay as mentioned above with 293T/CD cells. The data are presented as averages ±S.E with respect to that of the untreated cells from 3 independent experiments (FIG. 6B).

293T cells = assay: Suicide effect control, MTT viability assay; format: cell-based; settings: normal 293T cells, 1,000 μM 5-FC
Experimental: (§2) Normal 293T cells and 293T/CD cells transformed with pMSCV-puro/CD prepared in Step 1 were plated at a density of 2,000 cells/well in a 24-well plate containing DMEM with 10% fetal bovine serum. After 24 hours, 5-FC was added to the cells at various concentrations (0-10 mM). The media was replaced with fresh medium containing 5-FC every 2 days for 1 week. […] The viability was estimated by measuring mitochondria NADPH activity by 3-(4,5-dimethyl-thiazol-2-yl)-2,5-diphenyltetrazolium bromide (MTT) assay. The cells were incubated in 200 μl of […] MTT (Sigma, U.S.A) in PBS for 4 hours. The solution was replaced with 200 μl of absolute dimethyl sulfoxide (DMSO, Sigma). After incubated at room temperature for 15 minutes, the absorbance at 540 nm was measured with an ELISA reader (Molecular Probe, U.S.A). The data in FIG. 4B are presented as averages ±S.E. with respect to that of the cells grown in the absence of 5-FC from 3 independent experiments.

293T/CD cells = assay: Suicide effect of CD gene, MTT viability assay and phase contrast microscopy; format: cell-based
Experimental: as §2

MSC cells = assay: Suicide effect control in MSCs, MTT assay; format: cell-based, human; settings: up to 1,000 μM 5-FC, 2 weeks
Experimental: as §1

C6 glioma cells = assay: Cytotoxic effect of 5-FU on glioma cells, MTT assay; format: cell-based; settings: C6, 5-FU 1 week
Experimental: (§3) To verify that 5-FU produced by MSC/CD is sufficient to induce cell death in various glioma cells, C6 (KCLB No. 10107), U373 (KCLB No. 30017), U87 (KCLB No. 30014) cells were freshly obtained from KCLB (Korean cell line bank) and plated in 96-well plates in growth medium at a density of 100 cells/well, 100 cells/well, and 500 cells/well, respectively. After 24 hours, 5-FU was added to the cells at 0.01-100 μM. After 1 week, cell viability was estimated by MTT assay as described above.

U373 glioma cells = assay: as above; format: cell-based; settings: U373, 5-FU 1 week
Experimental: as §3

U87 glioma cells = assay: as above; format: cell-based; settings: U87, 5-FU 1 week
Experimental: as §3

Row | SMILES | IC50 (MSC/CD cells; Homo sapiens, 336 h, MSC/CD cells, 5-FC for 2 weeks, MTT, read-out: IC50 of cell death) | cell death by light microscopy (MSC/CD cells; MSC/CD cells, 1,000 μM 5-FC for 2 weeks) | concentration from which cell death was detected (MSC/CD cells; MSC/CD cells, 5-FC for 2 weeks, MTT) | cell death (293T cells) | viability by phase contrast microscopy (293T/CD cells; 293T/CD cells, 1,000 μM 5-FC) | concentration from which cell death was detected (293T/CD cells; 293T/CD cells, 5-FC for 1 week, MTT) | IC50 (293T/CD cells; Homo sapiens, HEK-293T, 168 h, 293T/CD cells, 5-FC for 1 week, MTT, read-out: IC50 of cell death) | cell death (MSC cells) | concentration at which cell death reached plateau (C6 glioma cells) | IC50 (C6 glioma cells; C6 glioma, 168 h, read-out: IC50 of cell death) | IC50 (U373 glioma cells; Homo sapiens, U373 MG, 168 h, read-out: IC50 of cell death) | concentration at which cell death reached plateau (U373 glioma cells) | IC50 (U87 glioma cells; Homo sapiens, U-87 MG, 168 h, read-out: IC50 of cell death) | concentration at which cell death reached plateau (U87 glioma cells)
1 | Nc1nc(=O)[nH]cc1F [5-FC, 5-fluorocytosine] | 332 µM | almost died | 100 µM | did not show cell death | reduced | 10 µM | 296 µM | did not show cell death |  |  |  |  |  | 
2 | O=c1[nH]cc(F)c(=O)[nH]1 [5-FU, 5-fluorouracil] |  |  |  |  |  |  |  |  | 10 µM | 0.93 µM | 5.34 µM | 10 µM | 5.65 µM | 10 µM
